From publication PMC5303205, “Comparative studies on the multi-component pharmacokinetics of Aristolochiae Fructus and honey-fried Aristolochiae Fructus extracts after oral administration in rats” (BMC Complementary and Alternative Medicine, 2017)
Like-named read-outs stand apart in the source and are kept apart here.

Tests used:
[1] = Multi-component pharmacokinetics of AAs in rats after oral administration of AF and HAF extracts (HPLC-MS/MS of plasma); set-up: species or system Sprague–Dawley (SD) rats; settings: Sprague-Dawley, rat, in vivo
Summary of the method: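 Rats were fasted 12 h and given AF or HAF extracts orally in 0.5% CMC–Na at 3.0, 8.0 or 15.0 mg/kg (as AA I), n = 6 per group. Ocular-vein plasma was sampled 0–24 h, ethyl-acetate extracted with internal standard, and analysed by C18 HPLC-MS/MS (positive ESI, MRM). Cmax was observed and other parameters model-fitted.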

[2] = Stability of AAs in rat plasma (QC samples, HPLC-MS/MS); type: in vitro ADME; settings: n = 5; for Short-term stability (RSD/%): fresh rat plasma at room temperature for 24 h before sample preparation; for Post-preparation stability (RSD/%): prepared rat plasma samples at room temperature for 24 h; for Long-term stability (RSD/%): rat plasma stored at –20 °C for 14 days; for Freeze-thaw stability (RSD/%): rat plasma, three freeze-thaw cycles (–20 °C 24 h, thawed at room temperature)
Summary of the method: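 Rat plasma QC samples tested over three freeze-thaw cycles (–20 °C 24 h, thawed at room temperature), 14 days at –20 °C, 24 h at room temperature before preparation, and 24 h post-preparation, by HPLC-MS/MS. Mean concentrations compared with freshly prepared samples; bias within ±15% accepted.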

[3] = 3 mg/kg, AF extract, low dose (3.0 mg/kg as AA I), analyte dose mg/kg: AA I 3.0, AA II 0.21, AA C 1.42, AA D 1.60, 7-OH AA I 2.33, n = 6
[4] = 3 mg/kg, HAF extract, low dose (3.0 mg/kg as AA I), analyte dose mg/kg: AA I 3.0, AA II 0.26, AA C 1.53, AA D 1.51, 7-OH AA I 2.48, n = 6
[5] = 8 mg/kg, AF extract, mid dose (8.0 mg/kg as AA I), analyte dose mg/kg: AA I 8.0, AA II 0.56, AA C 3.78, AA D 4.26, 7-OH AA I 6.22, n = 6
[6] = 8 mg/kg, HAF extract, mid dose (8.0 mg/kg as AA I), analyte dose mg/kg: AA I 8.0, AA II 0.69, AA C 4.09, AA D 4.03, 7-OH AA I 6.62, n = 6
[7] = 15 mg/kg, AF extract, high dose (15.0 mg/kg as AA I), analyte dose mg/kg: AA I 15.0, AA II 1.05, AA C 7.09, AA D 8.00, 7-OH AA I 11.66, n = 6
[8] = 15 mg/kg, HAF extract, high dose (15.0 mg/kg as AA I), analyte dose mg/kg: AA I 15.0, AA II 1.29, AA C 7.66, AA D 7.56, 7-OH AA I 12.41, n = 6
[9] = high QC conc ng/mL: AA I 1830, AA II 3200, AA C 2980, AA D 3680, 7-OH AA I 3280
[10] = low QC conc ng/mL: AA I 1.83, AA II 8.00, AA C 186.3, AA D 36.8, 7-OH AA I 82.0
[11] = middle QC conc ng/mL: AA I 457.5, AA II 400, AA C 372.5, AA D 460, 7-OH AA I 410

## O=C(O)c1cc2c(c3c1c([N+](=O)[O-])cc1ccccc13)OCO2 [AA II]
[1]; [3]
  AUC(0-inf): 3960 ± 1000 ng·h/mL
  Cmax: 590 ± 191 ng/mL
  Tmax: 1.03 ± 0.18 h
[1]; 3 mg/kg, AF extract, low dose (3.0 mg/kg as AA I), analyte dose mg/kg: AA I 3.0, AA II 0.21, AA C 1.42, AA D 1.60, 7-OH AA I 2.33, n = 6, read-out: CLz/F (converted)
  CL/F: 1.17 mL/min/kg
[1]; 3 mg/kg, AF extract, low dose (3.0 mg/kg as AA I), analyte dose mg/kg: AA I 3.0, AA II 0.21, AA C 1.42, AA D 1.60, 7-OH AA I 2.33, n = 6, read-out: Vz/F
  Vd/F: 0.49 ± 0.06 L/kg
[1]; 3 mg/kg, AF extract, low dose (3.0 mg/kg as AA I), analyte dose mg/kg: AA I 3.0, AA II 0.21, AA C 1.42, AA D 1.60, 7-OH AA I 2.33, n = 6, read-out: t 1/2z (converted)
  half-life: 4.98 ± 0.55 h
[1]; [4]
  AUC(0-inf): 2720 ± 795 ng·h/mL
  Cmax: 293 ± 55.2 ng/mL
  Tmax: 0.81 ± 0.14 h
[1]; 3 mg/kg, HAF extract, low dose (3.0 mg/kg as AA I), analyte dose mg/kg: AA I 3.0, AA II 0.26, AA C 1.53, AA D 1.51, 7-OH AA I 2.48, n = 6, read-out: CLz/F (converted)
  CL/F: 1.33 mL/min/kg
[1]; 3 mg/kg, HAF extract, low dose (3.0 mg/kg as AA I), analyte dose mg/kg: AA I 3.0, AA II 0.26, AA C 1.53, AA D 1.51, 7-OH AA I 2.48, n = 6, read-out: Vz/F
  Vd/F: 0.55 ± 0.07 L/kg
[1]; 3 mg/kg, HAF extract, low dose (3.0 mg/kg as AA I), analyte dose mg/kg: AA I 3.0, AA II 0.26, AA C 1.53, AA D 1.51, 7-OH AA I 2.48, n = 6, read-out: t 1/2z (converted)
  half-life: 4.94 ± 0.61 h
[1]; [5]
  AUC(0-inf): 7820 ± 1980 ng·h/mL
  Cmax: 1140 ± 193 ng/mL
  Tmax: 1.33 ± 0.21 h
[1]; 8 mg/kg, AF extract, mid dose (8.0 mg/kg as AA I), analyte dose mg/kg: AA I 8.0, AA II 0.56, AA C 3.78, AA D 4.26, 7-OH AA I 6.22, n = 6, read-out: CLz/F (converted)
  CL/F: 1.17 mL/min/kg
[1]; 8 mg/kg, AF extract, mid dose (8.0 mg/kg as AA I), analyte dose mg/kg: AA I 8.0, AA II 0.56, AA C 3.78, AA D 4.26, 7-OH AA I 6.22, n = 6, read-out: Vz/F
  Vd/F: 0.48 ± 0.05 L/kg
[1]; 8 mg/kg, AF extract, mid dose (8.0 mg/kg as AA I), analyte dose mg/kg: AA I 8.0, AA II 0.56, AA C 3.78, AA D 4.26, 7-OH AA I 6.22, n = 6, read-out: t 1/2z (converted)
  half-life: 5.06 ± 0.49 h
[1]; [6]
  AUC(0-inf): 3870 ± 1200 ng·h/mL
  Cmax: 412 ± 104 ng/mL
  Tmax: 0.81 ± 0.16 h
[1]; 8 mg/kg, HAF extract, mid dose (8.0 mg/kg as AA I), analyte dose mg/kg: AA I 8.0, AA II 0.69, AA C 4.09, AA D 4.03, 7-OH AA I 6.62, n = 6, read-out: CLz/F (converted)
  CL/F: 1.17 mL/min/kg
[1]; 8 mg/kg, HAF extract, mid dose (8.0 mg/kg as AA I), analyte dose mg/kg: AA I 8.0, AA II 0.69, AA C 4.09, AA D 4.03, 7-OH AA I 6.62, n = 6, read-out: Vz/F
  Vd/F: 0.49 ± 0.06 L/kg
[1]; 8 mg/kg, HAF extract, mid dose (8.0 mg/kg as AA I), analyte dose mg/kg: AA I 8.0, AA II 0.69, AA C 4.09, AA D 4.03, 7-OH AA I 6.62, n = 6, read-out: t 1/2z (converted)
  half-life: 4.95 ± 0.53 h
[1]; [7]
  AUC(0-inf): 12700 ± 2960 ng·h/mL
  Cmax: 1520 ± 200 ng/mL
  Tmax: 1.83 ± 0.29 h
[1]; 15 mg/kg, AF extract, high dose (15.0 mg/kg as AA I), analyte dose mg/kg: AA I 15.0, AA II 1.05, AA C 7.09, AA D 8.00, 7-OH AA I 11.66, n = 6, read-out: CLz/F (converted)
  CL/F: 1.83 mL/min/kg
[1]; 15 mg/kg, AF extract, high dose (15.0 mg/kg as AA I), analyte dose mg/kg: AA I 15.0, AA II 1.05, AA C 7.09, AA D 8.00, 7-OH AA I 11.66, n = 6, read-out: Vz/F
  Vd/F: 0.82 ± 0.09 L/kg
[1]; 15 mg/kg, AF extract, high dose (15.0 mg/kg as AA I), analyte dose mg/kg: AA I 15.0, AA II 1.05, AA C 7.09, AA D 8.00, 7-OH AA I 11.66, n = 6, read-out: t 1/2z (converted)
  half-life: 5.16 ± 0.52 h
[1]; [8]
  AUC(0-inf): 5630 ± 1690 ng·h/mL
  Cmax: 528 ± 62.4 ng/mL
  Tmax: 0.93 ± 0.19 h
[1]; 15 mg/kg, HAF extract, high dose (15.0 mg/kg as AA I), analyte dose mg/kg: AA I 15.0, AA II 1.29, AA C 7.66, AA D 7.56, 7-OH AA I 12.41, n = 6, read-out: CLz/F (converted)
  CL/F: 1.5 mL/min/kg
[1]; 15 mg/kg, HAF extract, high dose (15.0 mg/kg as AA I), analyte dose mg/kg: AA I 15.0, AA II 1.29, AA C 7.66, AA D 7.56, 7-OH AA I 12.41, n = 6, read-out: Vz/F
  Vd/F: 0.72 ± 0.08 L/kg
[1]; 15 mg/kg, HAF extract, high dose (15.0 mg/kg as AA I), analyte dose mg/kg: AA I 15.0, AA II 1.29, AA C 7.66, AA D 7.56, 7-OH AA I 12.41, n = 6, read-out: t 1/2z (converted)
  half-life: 5.39 ± 0.48 h
[2]; [9]
  Short-term stability (RSD/%): 9.3%
  Post-preparation stability (RSD/%): 6.5%
  Long-term stability (RSD/%): 7.3%
  Freeze-thaw stability (RSD/%): 14.3%
[2]; [10]
  Short-term stability (RSD/%): 5.0%
  Post-preparation stability (RSD/%): 4.4%
  Long-term stability (RSD/%): 1.2%
  Freeze-thaw stability (RSD/%): 1.3%
[2]; [11]
  Short-term stability (RSD/%): 5.5%
  Post-preparation stability (RSD/%): 3.6%
  Long-term stability (RSD/%): 8.2%
  Freeze-thaw stability (RSD/%): 10.2%
